{
  "source": "EPA's ToxValDB 9.5 (doi:10.2903/j.efsa.2010.1722)",
  "key": {"Anas platyrhynchos": {"tested_on": "Anas platyrhynchos", "conditions": "oral, mortality"}, "Aphidius matricariae [1]": {"tested_on": "Aphidius matricariae", "conditions": "not reported; reproduction"}, "Apis mellifera": {"tested_on": "Apis mellifera", "conditions": "acute, mortality"}, "Bibionidae": {"tested_on": "Bibionidae", "conditions": "chronic/long-term; duration: 21 days; other"}, "Canidae": {"tested_on": "Canidae", "conditions": "oral, Dog Other"}, "Colinus virginianus": {"tested_on": "Colinus virginianus", "conditions": "reproduction developmental"}, "Daphnia magna": {"tested_on": "Daphnia magna", "conditions": "chronic/long-term; duration: 21 days; reproduction"}, "Lepomis macrochirus": {"tested_on": "Lepomis macrochirus", "conditions": "acute; duration: 96 hours; mortality"}, "Mus musculus": {"tested_on": "Mus musculus", "conditions": "acute; oral; mortality"}, "Oncorhynchus mykiss": {"tested_on": "Oncorhynchus mykiss", "conditions": "chronic/long-term; duration: 28 days; growth"}, "Tagia sp.": {"tested_on": "Tagia sp.", "conditions": "acute; duration: 14 days; mortality"}, "Aphidius matricariae [2]": {"tested_on": "Aphidius matricariae", "assay": "LR50; higher = less toxic", "conditions": "not reported; mortality"}},
  "data": [
    {"smiles": "C[C@H]1[C@H](c2ccc(Cl)cc2)SC(=O)N1C(=O)NC1CCCCC1", "note": "[Hexythiazox]", "values": [
      {"measurement": "LD50", "setting": "Anas platyrhynchos; acute, unspecified", "value": "> 2000", "unit": "mg/kg"},
      {"measurement": "LC50", "setting": "Anas platyrhynchos; short-term, feed", "value": "> 523", "unit": "mg/kg-day"},
      {"measurement": "LEL", "setting": "Aphidius matricariae [1]", "value": 158, "unit": "g/ha"},
      {"measurement": "LD50", "setting": "Apis mellifera; dermal", "value": "> 200", "unit": "µg/piece"},
      {"measurement": "LD50", "setting": "Apis mellifera; duration: 48 hours, oral, unspecified", "value": "> 112", "unit": "µg/piece"},
      {"measurement": "NOEC", "setting": "Bibionidae", "value": 1.7, "unit": "mg/L"},
      {"measurement": "LD50", "setting": "Canidae; acute, mortality", "value": "> 5000", "unit": "mg/kg"},
      {"measurement": "NOAEL", "setting": "Canidae; chronic, duration: 1 years, histopathology: nonneoplastic", "value": 2.87, "unit": "mg/kg-day"},
      {"measurement": "NOEC", "setting": "Colinus virginianus", "value": 100, "unit": "mg/kg-day"},
      {"measurement": "NOEC", "setting": "Daphnia magna", "value": 0.0061, "unit": "mg/L"},
      {"measurement": "LC50", "setting": "Lepomis macrochirus", "value": 3.2, "unit": "mg/L"},
      {"measurement": "LD50", "setting": "Mus musculus", "value": "> 5000", "unit": "mg/kg"},
      {"measurement": "NOEC", "setting": "Oncorhynchus mykiss", "value": 0.04, "unit": "mg/L"},
      {"measurement": "LD50", "setting": "Rattus norvegicus; acute, oral, mortality", "value": "> 5000", "unit": "mg/kg"},
      {"measurement": "NOEL", "setting": "Rattus norvegicus; chronic", "value": 23.5, "unit": "mg/kg-day"},
      {"measurement": "NOAEL", "setting": "Rattus norvegicus; chronic, duration: 2 years, clinical chemistry", "value": 3.2, "unit": "mg/kg-day"},
      {"measurement": "LC50", "setting": "Tagia sp.", "value": "> 105", "unit": "mg/kg"},
      {"measurement": "LR50", "setting": "Aphidius matricariae [2]", "value": "> 158", "unit": "g/ha"}
    ]}
  ]
}
